We go through two compounds from patent US20260008784A1 (VASTHERA CO., LTD., priority 2022, published 2026).

Data set [1] concerns PDGF-induced tyrosine phosphorylation and PLC-γ1 phosphorylation in PASMC. The data set can be described thus: Immunoblot of PDGF-mediated signaling in PrxII knock-down PASMC. The format is cell-based, human. The following applies: PASMCs, PDGF stimulation, FIG. 3. Here is the method: (§1) Cells were quickly washed in ice-cold phosphate-buffered saline (PBS) and lysed in extraction buffer containing 20 mM Hepes (pH 7.0), 1% Triton X-100, 150 mM NaCl, 10% glycerol, 1 mM EDTA, 2 mM EGTA, and 1 mM DTT, 5 mM Na3VO4, 5 mM NaF, 1 mM AEBSF, aprotinin (5 μg/mL), and leupeptin (5 μg/mL). After cen-trifugation at 12,000×g, the clarified cell extracts were used for immunoblotting. For re-blotting, the immunoblots were retrieved in a solution of 67 mM Tris (pH 6.7), 2% SDS, and 100 mM 2-mercaptoethanol at 60° C. for 30 min to remove antibodies and rinsed three times with a Tris-buffered saline (TBS) solution containing 1% Triton X-100. The retrieved membranes were subjected to new immunoblotting.
In human aortic smooth muscle cell (HASMC) and human pulmonary artery smooth muscle cell (PASMC) in which PrxII was knocked out by transfecting the PrxII siRNA, the ability of test compounds to replace the cellular function of PrxII was evaluated. That is, the efficacy of the new compounds was verified in terms of signaling pathways induced by PDGF that regulates the growth and migration of vascular smooth muscle cells in the aorta and pulmonary artery. Activation of PDGF-induced signaling pathway was analyzed by an immunoblot method using an antibody that specifically recognizes phosphorylation of Tyr 857, which is a major phosphorylation site on PDGF receptor (PDGFRβ).

The subject of data set [2] is VEGF-induced tyrosine phosphorylation and ERK2 phosphorylation in PAEC. The data set is described as follows: Immunoblot of VEGF-mediated signaling in PrxII knock-down PAEC. The format is cell-based, human. The following applies: PAECs, VEGF stimulation, FIG. 6. As for the experimental part: as §1
In human aortic endothelial cell (HAEC) and human pulmonary artery endothelial cell (PAEC) in which PrxII was knocked out by transfecting the PrxII siRNA, the ability of test compounds to replace the cellular function of PrxII was evaluated. That is, the efficacy of the new compounds was verified in terms of signaling pathways induced by VEGF that regulates the growth and migration of vascular endothelial cells in the aorta and pulmonary artery. Activation of VEGF-induced signaling pathway was analyzed by an immunoblot method using an antibody that specifically recognizes phosphorylation of Tyr 1175, which is a major phosphorylation site on VEGF receptor-2 (VEGFR2).

Data set [3] concerns SuHx rat model of pulmonary arterial hypertension. The data set can be described thus: Sugen/hypoxia (SuHx) rat model of pulmonary arterial hypertension. The following applies: P.O., once daily, 0.1 mg/kg, 5 weeks; for RV hypertrophy (Fulton's index) / Right ventricular systolic pressure (RVSP): compared to vehicle control group, FIG. 7. In kind it is in vivo. As for the experimental part: The rat study protocol was approved by the Institutional Animal Care and Use Committee of the Ewha Womans University, Republic of Korea, and conforms to the ARRIVE guidelines. Six-week-old rats were acclimatized for one week in the laboratory. Then, Sugen 5416 (Sigma Aldrich) was subcutaneously injected at a dose of 20 mg/kg. The administered subjects were maintained in a normobaric hypoxic (10% O2) chamber (A chamber, Biosphenix) for 3 weeks. Rats were transferred to normoxia and orally administered with either control vehicle or test compounds for additional 5 weeks (P.O., once daily, 0.1 mg per kg weight).
Right ventricular systolic pressure (RVSP) was measured by […] using a curved catheter equipped with PowerLab2/26 device (AD Instruments, UK). Rats were anesthetized with 2% isoflurane inhalation. A catheter was inserted through the right jugular vein, the pressure was measured for 10 seconds with stabilized pattern. After […], rats were perfused with saline, and the heart was carefully removed. The removed heart was dissected into the right ventricle (RV), the rest of the septum (S; septum), and the left ventricle (LV). Each piece of heart was weighed using a microbalance. The RV/(LV+S) value was calculated and represented as a right ventricular hypertrophy index (Fulton's index).
Rats were anesthetized with 2% isoflurane inhalation and subjected to transcardiac perfusion-fixation with heparinized saline solution containing […]. Then, left lung lobes were incised and fixed in 10% NBF for 3 days. The fixed tissues were paraffin-embedded and sectioned using a rotary microtome (Leica HistoCore MULTICUT). Two serial tissue sections (4 μm thick) were placed a slide glass and stained with hematoxylin and eosin (HE). For analysis, ˜100 pulmonary arteries (diameter 20-100 μm) per tissue section were chosen for measurement. The luminal, internal elastic laminal, and external elastic laminal areas were quantified using NIH ImageJ v1.62. The intimal and medial areas were determined by subtraction of the luminal area from the internal elastic area and by subtracting the internal elastic area from the external elastic area. The values were averaged and used for calculating pulmonary arterial vessel thickness.
Paraffin sections were blocked with 5% normal donkey serum (Vector Laboratories) in PBST (PBS solution of 0.3% Triton X-100) for 1 h at room temperature. Thereafter, lung tissue sections were incubated with […] for Alexa Fluor 568-conjugated smooth muscle actin (α-SMA; 1:300 dilution) and Alexa Fluor 488-conjugated von Willebrand Factor (vWF; 1:200 dilution) at 4° C. for 12 h. Subsequently, nuclei were counterstained with DAPI. Fluorescence images were recorded in random regions of at least 10 pulmonary artery vessels (diameter 20-100 um) per tissue section at a screen magnification of 60× using an LSM 880 confocal microscope equipped with argon and helium-neon lasers.
The therapeutic effect of new compounds on pulmonary arterial hypertension was evaluated in a preclinical SuHx rat model. For establishing PAH model, rats were administered with Sugen (VEGFR2 inhibitor) and placed in a normobaric hypoxic condition (10% O2) for 3 weeks. Rats were moved to normoxic condition and orally administered with control vehicle or compound 1 or 8 (P.O., once daily, 0.1 mg/kg) for 5 weeks. Thereafter, right ventricular systolic pressure (RVSP) and right ventricular hypertrophy (Fulton's index) were measured at the end of treatment.

Data set [4] can be described thus: in vitro. The conditions noted are these: human.
Method: (§2) For cytotoxicity analysis, human aortic endothelial cells (HAEC) and smooth muscle cells (HASMC) were seeded in a 96-well culture plate at density of 4000 cells/well in a final volume of 100 μL. Cells were cultured for 24 h and serum-starved for an additional 18 h. Test compounds were serially diluted with EBM-2 culture medium, added to the plate at 100 μL/well, and further incubated for 24 h. The number of viable cells was measured using the WST-1 cell viability assay kit (Roche Diagnostics, USA). Cell number was expressed as absorbance values at 450 nm after subtracting the turbidity value at 600 nm. The absorbance values from three replicate wells were averaged.
(§3) After treatment with ascending concentrations of each compound, the concentration of test compound corresponding to 50% cell viability (CC50) was measured.
Data set [5] can be described thus: in vitro. The conditions noted are these: human. The source holds these as a separate data set.
Method: as §2, §3

As to `O=C1C2CSSC3(COCCN13)C(=O)N2Cc1ccccc1` (centres unmarked) [Compound 8, 12-benzyltetrahydro-5H,10H-4,10a-(epiminomethano)[1,4]oxazino[3,4-c][1,2,4]dithia zepine-5,11-dione], in data set [1], the “Effect on total tyrosine phosphorylation and phosphorylation of signaling proteins downstream of PDGFRβ” value is “significantly inhibits the protein phosphorylation”. Besides, the “Effect on total tyrosine phosphorylation and phosphorylation of signaling proteins downstream of VEGFR2” value in data set [2] is given as “significantly inhibits the protein phosphorylation”. In data set [3], the “RV hypertrophy (Fulton's index)” value is recorded as “significantly reduces” and the “Right ventricular systolic pressure (RVSP)” value is recorded as “significantly reduces”.
For the compound `CN1C(=O)C2(C)SSCC1C(=O)N2C` (centres unmarked) [Compound 1, 1,6,8-trimethyl-2,3-dithia-6,8-diazabicyclo[3.2.2]nonane-7,9-dione], the “Pulmonary arterial vessel occlusion (histology)” value in data set [3] (FIG. 8) was “widens the pulmonary arterial vessels”. In data set [3], the “RV hypertrophy (Fulton's index)” value is given as “significantly reduces” and the “Right ventricular systolic pressure (RVSP)” value is “significantly reduces”. In data set [3] (immunostaining, FIG. 9), the “Endothelial layer (vWF-labeled ECs) in pulmonary arterial vessels” value is “induces the recovery of endothelial layer” and the “Medial thickness (SMA-labeled SMCs) in pulmonary arterial vessels” value is listed as “reduction of medial thickness”. This compound yielded a CC50 in the data set “in vitro [4]” above 500 µM. Further, the CC50 in the data set “in vitro [5]” was above 500 µM.
